Here are results for 17 compounds from patent US8541445B2, “Pyrazolopyridines” (Vertex Pharmaceuticals Incorporated, priority 2009, dated 2013).

What is called Ki is the dissociation constant of the complex between target and ligand, obtained from inhibition or displacement. Lower therefore signals higher affinity.

Some results are limits rather than exact numbers.

Common to all, as to type: biochemical
In assay [1] the target is PKC alpha kinase (Homo sapiens, UniProt P17252). The assay can be described thus: PKC alpha kinase inhibition, coupled-enzyme NADH absorbance assay. To be noted: 4.5 nM PKC alpha kinase, 130 μM ATP, 100 μM CaCl2, 30° C. How it is done: An assay buffer solution was prepared which consisted of 100 mM HEPES (pH 7.5), 10 mM MgCl2, 25 mM NaCl, 0.1 mM EDTA, 100 μM CaCl2 and 0.01% Brij. An enzyme buffer containing reagents to final assay concentrations of 0.002% Triton X-100, 100 μg/mL Phosphatidylserine, 20 μg/mL Diacylglycerol, 360 μM NADH, 3 mM phosphoenolpyruvate, […], 24 μg/mL lactate dehydrogenase, 2 mM DTT, 150 μM substrate peptide (RRRRRKGSFKRKA SEQ ID NO. 3) and 4.5 nM PKC alpha kinase was prepared in assay buffer. To 16 μL of this enzyme buffer, in a 384 well plate, was added 1 μL of VRT stock solution in DMSO. The mixture was allowed to equilibrate for 10 mins at 30° C. The enzyme reaction was initiated by the addition of 16 μL stock ATP solution prepared in assay buffer to a final assay concentration of 130 μM. Initial rate data was determined from the rate of change of absorbance at 340 nm (corresponding to stoichiometric consumption of NADH) using a Molecular Devices Spectramax plate reader (Sunnyvale, Calif.) over 15 mins at 30° C. For each Ki determination 12 data points covering the VRT concentration range of 0-20 μM were obtained in duplicate (DMSO stocks were prepared from an initial 10 mM VRT stock with subsequent 1:2 serial dilutions). Ki values were calculated from initial rate data by non-linear regression using the Prism software package (Prism 4.0a, Graphpad Software, San Diego, Calif.).

Assay [2] deals with PKC delta kinase (Homo sapiens, UniProt Q05655). As to the kind of experiment: PKC delta kinase inhibition, coupled-enzyme NADH absorbance assay. To be noted: 46 nM PKC delta kinase, 150 μM ATP, 30° C. How it is done:
An assay buffer solution was prepared which consisted of 100 mM HEPES (pH 7.5), 10 mM MgCl2, 25 mM NaCl, 0.1 mM EDTA and 0.01% Brij. An enzyme buffer containing reagents to final assay concentrations of 0.002% Triton X-100, 200 μg/mL Phosphatidylserine, 20 μg/mL Diacylglycerol, 360 μM NADH, 3 mM phosphoenolpyruvate, 70 μg/mL pyruvate kinase, 24 μg/mL lactate dehydrogenase, 2 mM DTT, 150 μM substrate peptide (ERMRPRKRQGSVRRRV SEQ ID NO. 2) and 46 nM PKC delta kinase was prepared in assay buffer. To 16 μL of this enzyme buffer, in a 384 well plate, was added 1 μL of VRT stock solution in DMSO. The mixture was allowed to equilibrate for 10 mins at 30° C. The enzyme reaction was initiated by the addition of 16 μL stock ATP solution prepared in assay buffer to a final assay concentration of 150 μM. Initial rate data was determined from the rate of change of absorbance at 340 nm (corresponding to stoichiometric consumption of NADH) using a Molecular Devices Spectramax plate reader (Sunnyvale, Calif.) over 15 mins at 30° C. For each Ki determination 12 data points covering the VRT concentration range of 0-20 μM were obtained in duplicate (DMSO stocks were prepared from an initial 10 mM VRT stock with subsequent 1:2 serial dilutions). Ki values were calculated from initial rate data by non-linear regression using the Prism software package (Prism 4.0a, Graphpad Software, San Diego, Calif.).

Assay [3] deals with PKC theta kinase (Homo sapiens, UniProt Q04759). As to the kind of experiment: PKC theta kinase inhibition, coupled-enzyme NADH absorbance assay. To be noted: 18 nM PKC theta kinase, 240 μM ATP, 30° C. How it is done: An assay buffer solution was prepared which consisted of 100 mM HEPES (pH 7.5), 10 mM MgCl2, 25 mM NaCl, 0.1 mM EDTA and 0.01% Brij. An enzyme buffer containing reagents to final assay concentrations of 0.00001% Triton X-100, 200 μg/mL Phosphatidylserine, 20 μg/mL Diacylglycerol, 360 μM NADH, 3 mM phosphoenolpyruvate, 70 μg/mL pyruvate kinase, 24 μg/mL lactate dehydrogenase, 2 mM DTT, 100 μM substrate peptide (ERMRPRKRQGSVRRRV SEQ ID NO. 1) and 18 nM PKC theta kinase was prepared in assay buffer. To 60 μL of this enzyme buffer, in a 384 well plate, was added 2 μL of VRT stock solution in DMSO. The mixture was allowed to equilibrate for 10 mins at 30° C. The enzyme reaction was initiated by the addition of 5 μL stock ATP solution prepared in assay buffer to a final assay concentration of 240 μM. Initial rate data was determined from the rate of change of absorbance at 340 nm (corresponding to stoichiometric consumption of NADH) using a Molecular Devices Spectramax plate reader (Sunnyvale, Calif.) over 15 mins at 30° C. For each Ki determination 12 data points covering the VRT concentration range of 0-20 μM were obtained in duplicate (DMSO stocks were prepared from an initial 10 mM VRT stock with subsequent 1:2 serial dilutions). Ki values were calculated from initial rate data by non-linear regression using the Prism software package (Prism 4.0a, Graphpad Software, San Diego, Calif.).
PKC theta kinase, sequence (Q04759 whole entry): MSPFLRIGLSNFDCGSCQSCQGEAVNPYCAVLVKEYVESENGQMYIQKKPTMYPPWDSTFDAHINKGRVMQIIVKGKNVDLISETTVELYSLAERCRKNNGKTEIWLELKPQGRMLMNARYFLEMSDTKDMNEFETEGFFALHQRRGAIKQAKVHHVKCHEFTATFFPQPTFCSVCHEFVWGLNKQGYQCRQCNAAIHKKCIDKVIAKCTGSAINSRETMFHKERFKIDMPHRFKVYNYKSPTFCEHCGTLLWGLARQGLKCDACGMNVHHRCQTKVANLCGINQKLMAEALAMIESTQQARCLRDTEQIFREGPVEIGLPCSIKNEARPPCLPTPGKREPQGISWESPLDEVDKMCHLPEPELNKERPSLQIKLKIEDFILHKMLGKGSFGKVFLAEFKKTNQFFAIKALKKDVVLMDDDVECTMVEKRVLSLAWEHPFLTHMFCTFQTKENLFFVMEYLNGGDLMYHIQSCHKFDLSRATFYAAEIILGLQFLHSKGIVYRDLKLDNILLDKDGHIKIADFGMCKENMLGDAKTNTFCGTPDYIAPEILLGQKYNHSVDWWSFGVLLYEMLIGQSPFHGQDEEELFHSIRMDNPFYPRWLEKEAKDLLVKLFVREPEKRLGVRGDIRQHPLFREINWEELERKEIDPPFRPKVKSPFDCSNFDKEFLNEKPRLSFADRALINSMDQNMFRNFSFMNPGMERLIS

PKC delta kinase, sequence (Q05655 whole entry): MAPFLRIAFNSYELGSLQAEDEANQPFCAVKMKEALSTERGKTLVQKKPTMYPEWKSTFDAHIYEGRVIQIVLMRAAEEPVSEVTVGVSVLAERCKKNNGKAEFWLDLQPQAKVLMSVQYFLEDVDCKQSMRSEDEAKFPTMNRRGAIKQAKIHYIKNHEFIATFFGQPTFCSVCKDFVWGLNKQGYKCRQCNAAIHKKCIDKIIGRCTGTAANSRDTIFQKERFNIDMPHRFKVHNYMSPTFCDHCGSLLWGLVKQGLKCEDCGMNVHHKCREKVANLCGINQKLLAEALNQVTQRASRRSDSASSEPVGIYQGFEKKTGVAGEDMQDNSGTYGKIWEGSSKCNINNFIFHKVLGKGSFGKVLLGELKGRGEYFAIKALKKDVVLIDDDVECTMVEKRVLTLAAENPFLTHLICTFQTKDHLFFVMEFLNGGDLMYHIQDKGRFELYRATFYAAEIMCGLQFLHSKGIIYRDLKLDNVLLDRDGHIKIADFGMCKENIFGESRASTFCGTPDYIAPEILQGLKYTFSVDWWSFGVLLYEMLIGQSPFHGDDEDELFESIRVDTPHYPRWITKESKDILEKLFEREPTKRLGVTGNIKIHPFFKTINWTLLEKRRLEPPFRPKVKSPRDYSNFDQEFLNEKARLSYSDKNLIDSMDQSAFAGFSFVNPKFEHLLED

On to `CCC(C)(CN)c1csc(-c2ccnc3[nH]ncc23)c1` (stereo not drawn) [Compound 13, 2-(5-(1H-pyrazolo[3,4-b]pyridin-4-yl)thiophen-3-yl)-2-methylbutan-1-amine], for which the Ki in assay [1] is < 500 nM; in assay [2], < 500 nM; in assay [3], < 50 nM.

For `CCC(C)(C#N)c1csc(-c2ccnc3[nH]nc(Cl)c23)n1` (stereo not drawn) [Compound 8], the Ki in assay [1] was < 2800 nM; in assay [2], < 500 nM; in assay [3] it was < 50 nM.

For `NCCn1cc(-c2ccnc3[nH]ncc23)cn1` [Compound 16], the inhibition constant Ki in assay [1] is > 1250 nM; in assay [2] it was < 2800 nM; in assay [3], < 500 nM.

In the case of `CC(C)(CN)c1csc(-c2ccnc3[nH]ncc23)n1` [Compound 3, 2-(2-(1H-pyrazolo[3,4-b]pyridin-4-yl)thiazol-4-yl)-2-methylpropan-1-amine], the Ki in assay [1] was < 2800 nM; in assay [2], < 500 nM; in assay [3], < 50 nM.

Turning to `CCC(C)(CN)c1csc(-c2ccnc3[nH]ncc23)n1` (stereo not drawn) [Compound 10], the Ki in assay [1] was < 2800 nM; in assay [2], < 500 nM; in assay [3] it was < 50 nM.

As for `CCC(C)(CN)c1ccsc1-c1ccnc2[nH]ncc12` (stereo not drawn) [Compound 14], the Ki is > 1250 nM in assay [1], > 2000 nM in assay [2] and < 500 nM in assay [3].

As to `CC1(CN)CCCc2sc(-c3ccnc4[nH]ncc34)nc21` (stereo not drawn) [Compound 12, (4-methyl-2-(1H-pyrazolo[3,4-b]pyridin-4-yl)-4,5,6,7-tetrahydrobenzo[d]thiazol-4-yl)methanamine], the inhibitory constant (Ki) in assay [1] was > 1250 nM; in assay [2], < 2800 nM; in assay [3], < 500 nM.

On to `CCC(CN)n1cc(-c2ccnc3[nH]ncc23)cn1` (stereo not drawn) [Compound 17, 2-(4-(1H-pyrazolo[3,4-b]pyridin-4-yl)-1H-pyrazol-1-yl)butan-1-amine], for which the Ki in assay [1] was > 1250 nM; in assay [2] it was < 2800 nM; in assay [3], < 2800 nM.

Take `CCC(C)(CN)c1csc(-c2ccnc3[nH]nc(Cl)c23)n1` (stereo not drawn) [Compound 11]: the Ki was < 500 nM in assay [1], < 50 nM in assay [2] and < 50 nM in assay [3].

For the compound `Cc1sc(-c2ccnc3[nH]ncc23)nc1C(C)(C)CN` [Compound 4, 2-methyl-2-(5-methyl-2-(1H-pyrazolo[3,4-b]pyridin-4-yl)thiazol-4-yl)propan-1-amine], the inhibition constant Ki is < 2800 nM in assay [1], < 500 nM in assay [2] and < 500 nM in assay [3].

`CCC(C#N)n1cc(-c2ccnc3[nH]ncc23)cn1` (stereo not drawn) [Compound 15, 2-(4-(1H-pyrazolo[3,4-b]pyridin-4-yl)-1H-pyrazol-1-yl)butanenitrile]: the Ki in assay [1] was > 1250 nM; in assay [2], < 2800 nM; in assay [3], < 500 nM.

Regarding `N#CCc1csc(-c2ccnc3[nH]ncc23)n1` [Compound 1, 2-(2-(1H-pyrazolo[3,4-b]pyridin-4-yl)thiazol-4-yl)ethanenitrile], the inhibition constant (Ki) in assay [1] is > 1250 nM; in assay [2], < 2800 nM; in assay [3] it was < 500 nM.

For the compound `CCC(CN)c1csc(-c2ccnc3[nH]ncc23)n1` (stereo not drawn) [Compound 9], the inhibition constant (Ki) in assay [1] is > 1250 nM; in assay [2] it was < 500 nM; in assay [3], < 50 nM.

`CCC(C#N)(CC)c1csc(-c2ccnc3[nH]ncc23)n1` [Compound 7]: the Ki in assay [1] was < 500 nM; in assay [2], < 500 nM; in assay [3] it was < 50 nM.

Consider `CCC(C#N)c1csc(-c2ccnc3[nH]ncc23)n1` (stereo not drawn) [Compound 5], for which the figures for the Ki in assay [1], in assay [2] and in assay [3] were < 500 nM, < 500 nM and < 50 nM, respectively.

For the compound `CC(C)(C#N)c1csc(-c2ccnc3[nH]ncc23)n1` [Compound 2, 2-(2-(1H-pyrazolo[3,4-b]pyridin-4-yl)thiazol-4-yl)-2-methyl propanenitrile], the inhibitory constant (Ki) in assay [1] was < 2800 nM; in assay [2], < 500 nM; in assay [3], < 50 nM.

Consider `CCC(C)(C#N)c1csc(-c2ccnc3[nH]ncc23)n1` (stereo not drawn) [Compound 6], for which the Ki in assay [1] is < 2800 nM; in assay [2], < 500 nM; in assay [3], < 50 nM.
